Values of other authors in patent publication US20260083754A1, “CORTICOSTEROID CONTAINING ORALLY DISINTEGRATING TABLET COMPOSITIONS FOR EOSINOPHILIC ESOPHAGITIS” (Ellodi Pharmaceuticals, L.P., priority 2013, published 2026).

How the values were obtained:
[1] = system: adolescent and adult patients with active EoE; details: 15-day course, 1 mg twice daily

For CCCC1O[C@@H]2C[C@H]3[C@@H]4CCC5=CC(=O)C=C[C@]5(C)[C@H]4[C@@H](O)C[C@]3(C)[C@]2(C(=O)CO)O1 (stereo partly drawn) [budesonide], the tolerability [1] is listed as “well tolerated”.

In the case of CCC(=O)O[C@]1(C(=O)SCF)[C@H](C)C[C@H]2[C@@H]3C[C@H](F)C4=CC(=O)C=C[C@]4(C)[C@@]3(F)[C@@H](O)C[C@@]21C [FP, fluticasone propionate], the “patients who achieved histologic remission” value (EoE patients; FP-treated patients, placebo 9%, P=0.047) is given as 50% and the esophageal eosinophil levels (EoE patients; more pronounced effect in non-allergic individuals) is given as “decreased”.
